Results: patent US6815546B2, “Analogues of camptothecin, their use as medicaments and the pharmaceutical compositions containing them” (Societe de Recherches et d'Applications Scientifiques …, priority 1995, dated 2004)
Blank lines part the entries; values can stand above or below the compound they belong to.

How the values were obtained:
[1] = test system: Adenocarcinoma HT29 cells from the human colon; assay: Adenocarcinoma HT29 cell proliferation, WST1 (compounds in DMA); type: cell-based; details: final DMA 0.1% (v/v)
Description: c. Adenocarcinoma HT29 cells from the human colon are cultured in a single layer at 37° in a humidified atmosphere containing 95% of air and 5% of CO2, in a modified essential Earle's medium at 4.5 g/l (Gibco, Paisley, United Kingdom); completed with 10% of inactivated foetal calf serum, 2 mM of glutamine, and 50 μg/ml of gentamycin (Gibco, Paisley, United Kingdom).
Approximately 2000 cells are seeded with the culture medium above in the wells of a microplate (96 wells, flat-bottomed) and incubated for 24 hours. Solutions in N,N-dimethyl-acetamide (DMA) of each of the examples of the invention, diluted in the culture medium so that the final concentration of DMA is 0.1% (v/v), are added to the plate cultures in order to obtain final concentration ranges from 1×10^−13 to 1×10^−5 M, and the cells are incubated for 72 hours.
The WST1 staining reagent, (Boehringer Mannheim, Germany) is then added to each well at a final concentration of 9%, and the cells are incubated for 2 hours at 37° C. This stage allows the mitochondrial deshydrogenase of the living cells to convert WST1 orange tetrazolium salt into crimson formazan. The resulting stained solutions are quantified by dual-beam detection ([…]) using a multi-cuvette scanning spectrophotometer.
The results shown in the following table III C) are expressed in terms of inhibitory concentration at 50% (IC50, in nM), accompanied by a confidence interval.

[2] = target: T1, DNA topoisomerase 1 of purified calf thymus (Bos taurus, UniProt F1MN93); assay: Relaxation activity test of DNA induced by topoisomerase 1; type: biochemical; details: supercoiled pUC19, 15 minutes at 37° C.
T1 construct: DNA topoisomerase 1 of purified calf thymus (Gibco-BRL, Paisley, United Kingdom); purchased Gibco-BRL, Paisley, United Kingdom; host or cells: calf thymus tissue
T1 sequence (F1MN93 1-767): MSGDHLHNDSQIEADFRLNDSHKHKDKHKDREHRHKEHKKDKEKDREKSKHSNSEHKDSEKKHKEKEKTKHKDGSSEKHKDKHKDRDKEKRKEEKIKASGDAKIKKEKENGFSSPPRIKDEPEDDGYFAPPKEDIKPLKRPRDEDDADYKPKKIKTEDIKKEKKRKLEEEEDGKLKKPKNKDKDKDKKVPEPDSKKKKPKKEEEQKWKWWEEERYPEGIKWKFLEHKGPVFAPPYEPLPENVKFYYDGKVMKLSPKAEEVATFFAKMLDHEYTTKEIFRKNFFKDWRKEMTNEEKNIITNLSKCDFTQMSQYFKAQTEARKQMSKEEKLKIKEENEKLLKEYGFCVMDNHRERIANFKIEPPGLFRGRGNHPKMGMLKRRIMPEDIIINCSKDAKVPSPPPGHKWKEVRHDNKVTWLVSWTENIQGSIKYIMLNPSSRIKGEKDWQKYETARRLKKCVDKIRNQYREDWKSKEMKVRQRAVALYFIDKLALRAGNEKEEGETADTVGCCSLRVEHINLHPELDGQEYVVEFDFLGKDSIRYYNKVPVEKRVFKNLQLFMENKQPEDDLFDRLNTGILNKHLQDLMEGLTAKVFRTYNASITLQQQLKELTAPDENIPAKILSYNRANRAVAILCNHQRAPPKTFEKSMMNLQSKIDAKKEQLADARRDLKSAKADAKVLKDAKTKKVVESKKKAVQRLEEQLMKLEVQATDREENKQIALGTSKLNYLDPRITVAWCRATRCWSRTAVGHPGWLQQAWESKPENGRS
Description: 1. Relaxation Activity Test of DNA Induced by Topoisomerase 1
All the reactions are carried out in a 20 μl reaction buffer constituted by 50 mM of Tris-HCl (pH 7.5), 50 mM of KCl, 0.5 mM of dithiothreitol, 10 mM of MgCl2, 0.1 mM of ethyldiamine tetraacetic acid (EDTA), 30 μg/ml of bovine serum albumin and 300 ng of supercoiled pUC19 (Pharmacia Biotech, Orsay, France) with or without the compounds to be tested at defined concentrations. All the compounds to be tested are initially dissolved in dimethylsulphoxide (DMSO) at 50 mM, the other dilutions being carried out with distilled water. […] The reaction is initiated by the addition of a unit of DNA topoisomerase 1 of purified calf thymus (Gibco-BRL, Paisley, United Kingdom) and is carried out for 15 minutes at 37° C. The reactions are stopped by the addition of 3 μl of a mixture containing 1% dodecyl sodium sulphate at 1%, 20 mM of EDTA and 500 μg/ml of K proteinase (Boehringer Mannheim, Meylan, France). After an additional incubation period of 30 minutes at 37° C., 2 μl of a loading buffer containing 10 mM of Na2HPO4, 0.3% of bromophenol blue et 16% Ficoll are added to samples which are subjected to electrophoresis in agarose gels at 1.2% at 1 V/cm for 20 hours in a buffer containing 36 mM of Tris-HCl at pH 7.8, 30 mM of Na2HPO4, 1 mM of EDTA and 2 μg/ml of chloroquine. The gels are stained with 2 μg/ml of ethidium bromide, photographed under UV light at 312 nm with a camera and the fluorescent intensity is measured with a bioProfil camera (Vilber Lournat, Lyon, France) with a view to determining the percentage of relaxed DNA. Each experiment is carried out at least three times in duplicate.
In each experiment, the supercoiled plasmid DNA is incubated alone or with topoisomerase 1. The reaction is completed within 15 minutes. For each compound to be tested or control, the supercoiled plasmid DNA is incubated in the presence of 500 μM of compound to be tested with enzyme or without enzyme plus the compound to be tested, at concentrations of 10 μM, 100 μM, 200 μM and 500 μM.

IC50 ([1]; Homo sapiens, HT-29, 72 hours): 3.5 nM
Compound: CCc1c2c(nc3cc(F)ccc13)-c1cc3c(c(=O)n1C2)COC(=O)C[C@]3(O)CC [Example 106, (5R)-5,12-diethyl-9-fluoro-5-hydroxy-4,5,13,15-tetrahydro-1H,3H-oxepino[3′,4′:6,7]indolizino[1,2-b]quinoline-3,15-dione]

Compound: CCN1COc2ccc3nc4c(cc3c2C1)Cn1c-4cc2c(c1=O)COC(=O)CC2(O)CC (stereo not shown) [Example 76, 2,9-diethyl-9-hydroxy-1,2,3,9,10,16-hexahydro-13H-[1,3]oxazino[5,6-f]oxepino[3′,4′:6,7]indolizino[1,2-b]quinoline-11,14-dione]
PERCENTAGE OF RELAXED DNA ([2]; 10 μM compound): 79.7% | PERCENTAGE OF RELAXED DNA ([2]; 100 μM compound): 33.5% | PERCENTAGE OF RELAXED DNA ([2]; 200 μM compound): 23.2%

Compound: CC[C@@]1(O)CC(=O)OCc2c1cc1n(c2=O)Cc2c-1nc1ccccc1c2-c1ccccc1 [Example 89, (5R)-5-ethyl-5-hydroxy-12-phenyl-4,5,13,15-tetrahydro-1H,3H-oxepino[3′,4′:6,7]indolizino[1,2-b]quinoline-3,15-dione]
IC50 ([1]; Homo sapiens, HT-29, 72 hours): 13 nM

Compound: CC[C@@]1(O)CC(=O)OCc2c1cc1n(c2=O)Cc2c-1nc1ccccc1c2Cl [Example 160, (5R)-12-chloro-5-ethyl-5-hydroxy-4,5,13,15-tetrahydro-1H,3H-oxepino[3′,4′:6,7]indolizino[1,2-b]quinoleine-3,15-dione]
IC50 ([1]; 72 hours): 5.5 nM

Compound: CCCc1c2c(nc3cc(F)cc(F)c13)-c1cc3c(c(=O)n1C2)COC(=O)C[C@]3(O)CC [Example 169, (5R)-5-ethyl-9,11-difluoro-5-hydroxy-12-propyl-4,5,13,15-tetrahydro-1H,3H-oxepino[3′,4′:6,7]indolizino[1,2-b]quinoleine-3,15-dione]
IC50 ([1]; 72 hours): 2.3 nM

Compound: CC[C@@]1(O)CC(=O)OCc2c1cc1n(c2=O)Cc2c-1nc1cc(F)ccc1c2-c1ccc(OC(F)(F)F)cc1 [Example 166, (5R)-5-ethyl-9-fluoro-5-hydroxy-12-(4-trifluoromethoxyphenyl)-4,5,13,15-tetrahydro-1H,3H-oxepino[3′,4′:6,7]indolizino[1,2-b]quinoleine-3,15-dione]
IC50 ([1]; 72 hours): 8.9 nM

Compound: CC[C@@]1(O)CC(=O)OCc2c1cc1n(c2=O)Cc2c-1nc1cc(F)c(F)cc1c2-c1ccccc1 [Example 93, (5R)-5-ethyl-9,10-difluoro-5-hydroxy-12-phenyl-4,5,13,15-tetrahydro-1H,3H-oxepino[3′,4′:6,7]indolizino[1,2-b]quinoline-3,15-dione]
IC50 ([1]; Homo sapiens, HT-29, 72 hours): 12 nM

Compound: CCCCc1c2c(nc3cc(F)c(F)cc13)-c1cc3c(c(=O)n1C2)COC(=O)C[C@]3(O)CC [Example 95, (5R)-12-butyl-5-ethyl-9,10-difluoro-5-hydroxy-4,5,13,15-tetrahydro-1H,3H-oxepino[3′,4′:6,7]indolizino[1,2-b]quinoline-3,15-dione]
IC50 ([1]; Homo sapiens, HT-29, 72 hours): 8.5 nM

Compound: CCCCc1c2c(nc3cc(F)ccc13)-c1cc3c(c(=O)n1C2)COC(=O)C[C@]3(O)CC [Example 105, (5R)-12-butyl-5-ethyl-9-fluoro-5-hydroxy-4,5,13,15-tetrahydro-1H,3H-oxepino[3′,4′:6,7]indolizino[1,2-b]quinoline-3,15-dione]
IC50 ([1]; Homo sapiens, HT-29, 72 hours): 9.5 nM

Compound: CC[C@@]1(O)CC(=O)OCc2c1cc1n(c2=O)Cc2cc3c(F)cc(F)cc3nc2-1 [Example 100, (5R)-5-ethyl-9,11-difluoro-5-hydroxy-4,5,13,15-tetrahydro-1H,3H-oxepino[3′,4′:6,7]indolizino[1,2-b]quinoline-3,15-dione]
IC50 ([1]; Homo sapiens, HT-29, 72 hours): 2.2 nM

Compound: CC[C@@]1(O)CC(=O)OCc2c1cc1n(c2=O)Cc2c-1nc1cc(F)ccc1c2-c1cccc(F)c1 [Example 164, (5R)-5-ethyl-9-fluoro-12-(3-fluorophenyl)-5-hydroxy-4,5,13,15-tetrahydro-1H,3H-oxepino[3′,4′:6,7]indolizino[1,2-b]quinoleine-3,15-dione]
IC50 ([1]; 72 hours): 2.7 nM

Compound: CCc1c2c(nc3cc(F)cc(F)c13)-c1cc3c(c(=O)n1C2)COC(=O)C[C@]3(O)CC [Example 102, (5R)-5,12-diethyl-9,1 1-difluoro-5-hydroxy-4,5,13,15-tetrahydro-1H,3H-oxepino[3′,4′:6,7]indolizino[1,2-b]quinoline-3,15-dione]
IC50 ([1]; Homo sapiens, HT-29, 72 hours): 8 nM

Compound: CC[C@@]1(O)CC(=O)OCc2c1cc1n(c2=O)Cc2c-1nc1cc(F)ccc1c2-c1cc(F)cc(F)c1 [Example 117, (5R)-12-(3,5-difluorophenyl)-5-ethyl-9-fluoro-5-hydroxy-4,5,13,15-tetrahydro-1H,3H-oxepino[3′,4′:6,7]indolizino[1,2-b]quinoline-3,15-dione]
IC50 ([1]; Homo sapiens, HT-29, 72 hours): 0.25 nM

Compound: CCC1(O)CC(=O)OCc2c1cc1n(c2=O)Cc2cc3c4c(ccc3nc2-1)OCN(C)C4 (stereo not shown) [Example 77, 9-ethyl-9-hydroxy-2-methyl-1,2,3,9,10,16-hexahydro-13H-[1,3]oxazino[5,6f]oxepino[3′,4′:6,7]indolizino[1,2-b]quinoline-11,14-dione]
PERCENTAGE OF RELAXED DNA ([2]; 10 μM compound): 86.2% | PERCENTAGE OF RELAXED DNA ([2]; 100 μM compound): 35.1% | PERCENTAGE OF RELAXED DNA ([2]; 200 μM compound): 32.1%

Compound: CCC1(O)CC(=O)OCc2c1cc1n(c2=O)Cc2cc3c4c(c(F)cc3nc2-1)OCN(Cc1ccccc1)C4 (stereo not shown) [Example 79, 2-benzyl-9-ethyl-5-fluoro-9-hydroxy-1,2,3,9,10,16-hexahydro-13H-[1,3]oxazino[5,6f]oxepino[3′,4′:6,7]indolizino[1,2-b]quinoline-11,14-dione]
PERCENTAGE OF RELAXED DNA ([2]; 10 μM compound): 55.6% | PERCENTAGE OF RELAXED DNA ([2]; 100 μM compound): 38.9% | PERCENTAGE OF RELAXED DNA ([2]; 200 μM compound): 30.0%

Compound: CCC1(O)CC(=O)OCc2c1cc1n(c2=O)Cc2cc3c4c(ccc3nc2-1)OCN(Cc1ccccc1)C4 (stereo not shown) [Example 78, 2-benzyl-9-ethyl-9-hydroxy-1,2,3,9,10,16-hexahydro-13H-[1,3]oxazino[5,6f]oxepino[3′,4′:6,7]indolizino[1,2-b]quinoline-11,14-dione]
PERCENTAGE OF RELAXED DNA ([2]; 10 μM compound): 56.2% | PERCENTAGE OF RELAXED DNA ([2]; 100 μM compound): 28.0% | PERCENTAGE OF RELAXED DNA ([2]; 200 μM compound): 24.2%

PERCENTAGE OF RELAXED DNA ([2]; 10 μM compound): 97.9% | PERCENTAGE OF RELAXED DNA ([2]; 100 μM compound): 78.3% | PERCENTAGE OF RELAXED DNA ([2]; 200 μM compound): 73.2% | PERCENTAGE OF RELAXED DNA ([2]; 500 μM compound): 51.1%
Compound: CCOC(=O)CC(O)(CC)c1cc2n(c(=O)c1CO)Cc1cc3ccccc3nc1-2 (stereo not shown) [Example 2, ethyl 3-hydroxy-3-[8-(hydroxymethyl)-9-oxo-9,11-dihydroindolizino [1,2-b]quinolin-7-yl]pentanoate]
